Reference: EP2951180B1, “2,6,7,8 SUBSTITUTED PURINES AS HDM2 INHIBITORS” (Merck Sharp & Dohme Corp., priority 2013, dated 2014)

molecular target: T1, HDM2 (Homo sapiens, UniProt Q00987); assay: HDM2 FRET assay (inhibition of binding of FITC labeled p53-pocket peptide to HDM2); settings: 0.5 nM HDM2 (residues 17 to 125), 3nM peptide, two hour incubation at room temperature; read-out: FRET IC50
T1 construct: Thioredoxin (N); made in house; host or cells: E. coli strain BL21(DE3)Rosetta
Outline: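 Displacement of FITC-p53 peptide (3 nM) from His-tagged HDM2 (0.5 nM) is measured by Tb-to-fluorescein FRET in PBS, 0.01% BSA, 0.01% Tween-20. IC50 values derive from 10-point curves.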

T1 sequence (Q00987 17-125): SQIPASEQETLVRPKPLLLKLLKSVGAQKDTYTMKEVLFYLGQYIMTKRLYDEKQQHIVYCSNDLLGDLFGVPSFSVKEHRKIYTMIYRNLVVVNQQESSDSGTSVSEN

C[C@H]1CC[C@H](Cn2c(N3CCOC[C@H]3c3ccccc3F)nc3nc(-c4noc(=O)[nH]4)nc(-c4cncc(Cl)c4)c32)CC1 [Example 16.92, 3-{6-(5-chloropyridin-3-yl)-8-[(3R)-3-(2-fluorophenyl)morpholin-4-yl]-7-[(trans-4-methylcyclohexyl)methyl]-7H-purin-2-yl}-1,2,4-oxadiazol-5(4H)-one] and C[C@H]1CC[C@H](Cn2c(N3CCOC[C@H]3c3ccccc3F)nc3nc(-c4n[nH]c(=O)o4)nc(-c4cncc(Cl)c4)c32)CC1 [Example 16.95, 5-{6-(5-chloropyridin-3-yl)-8-[(3R)-3-(2-fluorophenyl)morpholin-4-yl]-7-[(trans-4-methylcyclohexyl)methyl]-7H-purin-2-yl}-1,3,4-oxadiazol-2(3H)-one] are within 1.5-fold of each other in IC50: 0.585 nM for the first, 0.494 nM for the second.

C[C@H]1CC[C@H](Cn2c(N3CCOC[C@H]3c3ccc(F)cc3)nc3nc(-c4noc(=O)[nH]4)nc(-c4cncc(Cl)c4)c32)CC1 [Example 16.93, 3-{6-(5-chloropyridin-3-yl)-8-[(3R)-3-(4-fluorophenyl)morpholin-4-yl]-7-[(trans-4-methylcyclohexyl)methyl]-7H-purin-2-yl}-1,2,4-oxadiazol-5(4H)-one] and C[C@H]1CC[C@H](Cn2c(N3CCOC[C@H]3c3ccc(F)cc3)nc3nc(-c4n[nH]c(=O)o4)nc(-c4cncc(Cl)c4)c32)CC1 [Example 16.94, 5-{6-(5-chloropyridin-3-yl)-8-[(3R)-3-(4-fluorophenyl)morpholin-4-yl]-7-[(trans-4-methylcyclohexyl)methyl]-7H-purin-2-yl}-1,3,4-oxadiazol-2(3H)-one] are within 1.5-fold of each other in IC50: 1.37 nM for the first, 1.98 nM for the second.

C[C@H]1CC[C@H](Cn2c(N3CCOC[C@H]3c3ccncc3)nc3nc(-c4noc(=O)[nH]4)nc(-c4cccc(Cl)c4)c32)CC1 [Example 16.96, 3-{6-(3-chlorophenyl)-7-[(trans-4-methylcyclohexyl)methyl]-8-[(3R)-3-pyridin-4-ylmorpholin-4-yl]-7H-purin-2-yl}-1,2,4-oxadiazol-5(4H)-one] and C[C@H]1CC[C@H](Cn2c(N3CCOC[C@H]3c3ccncc3)nc3nc(-c4n[nH]c(=O)o4)nc(-c4cccc(Cl)c4)c32)CC1 [Example 16.97, 5-{6-(3-chlorophenyl)-7-[(trans-4-methylcyclohexyl)methyl]-8-[(3R)-3-pyridin-4-ylmorpholin-4-yl]-7H-purin-2-yl}-1,3,4-oxadiazol-2(3H)-one] are within 1.5-fold of each other in IC50: 3.29 nM for the first, 3.81 nM for the second.

C[C@H]1CC[C@H](Cn2c(N3CCOC[C@H]3c3ccccn3)nc3nc(-c4noc(=O)[nH]4)nc(-c4cccc(Cl)c4)c32)CC1 [Example 16.98, 3-{6-(3-chlorophenyl)-7-[(trans-4-methylcyclohexyl)methyl]-8-[(3R)-3-pyridin-2-ylmorpholin-4-yl]-7H-purin-2-yl}-1,2,4-oxadiazol-5(4H)-one] and C[C@H]1CC[C@H](Cn2c(N3CCOC[C@H]3c3ccccn3)nc3nc(-c4n[nH]c(=O)o4)nc(-c4cccc(Cl)c4)c32)CC1 [Example 16.99, 5-{6-(3-chlorophenyl)-7-[(trans-4-methylcyclohexyl)methyl]-8-[(3R)-3-pyridin-2-ylmorpholin-4-yl]-7H-purin-2-yl}-1,3,4-oxadiazol-2(3H)-one] are within 1.5-fold of each other in IC50: 1.61 nM for the first, 1.98 nM for the second.

Going from C[C@@H]1OCCN(c2nc3nc(-c4n[nH]c(=O)o4)nc(-c4cncc(Cl)c4)c3n2C[C@H]2CC[C@H](C)CC2)[C@@H]1C [Example 16.103, 5-{6-(5-chloropyridin-3-yl)-8-[(2S,3R)-2,3-dimethylmorpholin-4-yl]-7-[(trans-4-methylcyclohexyl)methyl]-7H-purin-2-yl}-1,3,4-oxadiazol-2(3H)-one] to C[C@@H]1COC[C@@H](C)N1c1nc2nc(-c3n[nH]c(=O)o3)nc(-c3cncc(Cl)c3)c2n1C[C@H]1CC[C@H](C)CC1 [Example 16.105, 5-{6-(5-chloropyridin-3-yl)-8-[(3R,5R)-3,5-dimethylmorpholin-4-yl]-7-[(trans-4-methylcyclohexyl)methyl]-7H-purin-2-yl}-1,3,4-oxadiazol-2(3H)-one], the IC50 falls from 140 nM to 11 nM (13-fold).

First: C[C@H]1CC[C@H](Cn2c(N3CCC[C@H]3CF)nc3nc(-c4n[nH]c(=O)o4)nc(-c4cncc(Cl)c4)c32)CC1 [Example 16.104, 5-{6-(5-chloropyridin-3-yl)-8-[(2S)-2-(fluoromethyl)pyrrolidin-1-yl]-7-[(trans-4-methylcyclohexyl)methyl]-7H-purin-2-yl}-1,3,4-oxadiazol-2(3H)-one]
Second: C[C@H]1CC[C@H](Cn2c(N3CCC[C@H]3C(F)(F)F)nc3nc(-c4n[nH]c(=O)o4)nc(-c4cncc(Cl)c4)c32)CC1 [Example 16.106, 5-{6-(5-chloropyridin-3-yl)-7-[(trans-4-methylcyclohexyl)methyl]-8-[(2S)-2-(trifluoromethyl)pyrrolidin-1-yl]-7H-purin-2-yl} -1,3,4-oxadiazol-2(3H)-one]
The IC50 of the first is 4.7-fold higher: 3.91 nM for the first, 0.825 nM for the second.

C[C@H]1CC[C@H](Cn2c(N3CCOC[C@H]3c3ccccc3)nc3nc(-c4noc(=O)[nH]4)nc(-c4cc(Cl)nc(Cl)c4)c32)CC1 [Example 16.107, 3-{6-(2,6-dichloropyridin-4-yl)-7-[(trans-4-methylcyclohexyl)methyl]-8-[(3R)-3-phenylmorpholin-4-yl]-7H-purin-2-yl}-1,2,4-oxadiazol-5(4H)-one] and COc1cc(-c2nc(-c3noc(=O)[nH]3)nc3nc(N4CCOC[C@H]4c4ccccc4)n(C[C@H]4CC[C@H](C)CC4)c23)cc(Cl)n1 [Example 16.109, 3-{6-(2-chloro-6-methoxypyridin-4-yl)-7-[(trans-4-methylcyclohexyl)methyl]-8-[(3R)-3-phenylmorpholin-4-yl]-7H-purin-2-yl}-1,2,4-oxadiazol-5(4H)-one] are within 1.5-fold of each other in IC50: 1.66 nM for the first, 1.21 nM for the second.

C[C@H]1CC[C@H](Cn2c(N3CCOC[C@H]3c3ccccc3)nc3nc(-c4noc(=O)[nH]4)nc(-c4cc(Cl)cnc4F)c32)CC1 [Example 16.108, 3-{6-(5-chloro-2-fluoropyridin-3-yl)-7-[(trans-4-methylcyclohexyl)methyl]-8-[(3R)-3-phenylmorpholin-4-yl]-7H-purin-2-yl}-1,2,4-oxadiazol-5(4H)-one] and C[C@H]1CC[C@H](Cn2c(N3CCOC[C@H]3c3ccccc3)nc3nc(-c4noc(=O)[nH]4)nc(-c4ccnc(Cl)c4)c32)CC1 [Example 16.110, 3-{6-(2-chloropyridin-4-yl)-7-[(trans-4-methylcyclohexyl)methyl]-8-[(3R)-3-phenylmorpholin-4-yl]-7H-purin-2-yl}-1,2,4-oxadiazol-5(4H)-one] are within 1.5-fold of each other in IC50: 1.16 nM for the first, 1.14 nM for the second.

First: CS(=O)(=O)c1cc(Cl)cc(-c2nc(-c3noc(=O)[nH]3)nc3nc(N4CCOC[C@H]4c4ccccc4)n(C[C@H]4CC[C@H](C)CC4)c23)c1 [Example 16.111, 3-{6-[3-chloro-5-(methylsulfonyl)phenyl]-7-[(trans-4-methylcyclohexyl)methyl]-8-[(3R)-3-phenylmorpholin-4-yl]-7H-purin-2-yl}-1,2,4-oxadiazol-5(4H)-one]
Second: Cc1cc(Cl)cc(-c2nc(-c3noc(=O)[nH]3)nc3nc(N4CCOC[C@H]4c4ccccc4)n(C[C@H]4CC[C@H](C)CC4)c23)c1 [Example 16.114, 3-{6-(3-chloro-5-methylphenyl)-7-[(trans-4-methylcyclohexyl)methyl]-8-[(3R)-3-phenylmorpholin-4-yl]-7H-purin-2-yl}-1,2,4-oxadiazol-5(4H)-one]
The IC50 of the first is 1.9-fold higher: 2.9 nM for the first, 1.56 nM for the second.

Compared with Cc1nc(-c2cccc(-c3nc(-c4noc(=O)[nH]4)nc4nc(N5CCOC[C@H]5c5ccccc5)n(C[C@H]5CC[C@H](C)CC5)c34)c2)no1 [Example 16.112, 3-{7-[(trans-4-methylcyclohexyl)methyl]-6-[3-(5-methyl-1,2,4-oxadiazol-3-yl)phenyl]-8-[(3R)-3-phenylmorpholin-4-yl]-7H-purin-2-yl}-1,2,4-oxadiazol-5(4H)-one], Cc1cncc(-c2nc(-c3noc(=O)[nH]3)nc3nc(N4CCOC[C@H]4c4ccccc4)n(C[C@H]4CC[C@H](C)CC4)c23)c1 [Example 16.115, 3-{7-[(trans-4-methylcyclohexyl)methyl]-6-(5-methylpyridin-3-yl)-8-[(3R)-3-phenylmorpholin-4-yl]-7H-purin-2-yl}-1,2,4-oxadiazol-5(4H)-one] is 4.6-fold lower in IC50: 18 nM for the first, 3.92 nM for the second. The second is the more potent here.

Compared with C[C@H]1CC[C@H](Cn2c(N3CCOC[C@H]3c3ccccc3)nc3nc(-c4noc(=O)[nH]4)nc(-c4cc(Cl)cc(N5CCCC5)c4)c32)CC1 [Example 16.113, 3-{6-(3-chloro-5-pyrrolidin-1-ylphenyl)-7-[(trans-4-methylcyclohexyl)methyl]-8-[(3R)-3-phenylmorpholin-4-yl]-7H-purin-2-yl}-1,2,4-oxadiazol-5(4H)-one], Cc1csc([C@@H]2COCCN2c2nc3nc(-c4noc(=O)[nH]4)nc(-c4cccc(Cl)c4)c3n2C[C@H]2CC[C@H](C)CC2)n1 [Example 16.120, 3-{6-(3-chlorophenyl)-7-[(trans-4-methylcyclohexyl)methyl]-8-[(3S)-3-(4-methyl-1,3-thiazol-2-yl)morpholin-4-yl]-7H-purin-2-yl}-1,2,4-oxadiazol-5(4H)-one] is 1.6-fold lower in IC50: 14.9 nM for the first, 9.14 nM for the second.

Going from Cc1noc([C@@H]2COCCN2c2nc3nc(-c4noc(=O)[nH]4)nc(-c4cccc(Cl)c4)c3n2C[C@H]2CC[C@H](C)CC2)n1 [Example 16.116, 3-{6-(3-chlorophenyl)-7-[(trans-4-methylcyclohexyl)methyl]-8-[(3S)-3-(3-methyl-1,2,4-oxadiazol-5-yl)morpholin-4-yl]-7H-purin-2-yl}-1,2,4-oxadiazol-5(4H)-one] to C[C@H]1CC[C@H](Cn2c(N3CCOC[C@H]3C(N)=O)nc3nc(-c4noc(=O)[nH]4)nc(-c4cccc(Cl)c4)c32)CC1 [Example 16.117, (3 S)-4-[6-(3-chlorophenyl)-7-[(trans-4-methylcyclohexyl)methyl]-2-(5-oxo-4,5-dihydro-1,2,4-oxadiazol-3-yl)-7H-purin-8-yl]morpholine-3-carboxamide], the IC50 rises from 7.26 nM to 105 nM (14-fold). The first is the more potent here.
